18 compounds from ChEMBL document CHEMBL2331321, “Design, synthesis, and biological evaluation of 3-aryl-3-hydroxy-1-phenylpyrrolidine derivatives as novel androgen receptor antagonists” (Bioorg Med Chem, 2013) can be followed below.

Data set [1] deals with T1, Androgen receptor (Homo sapiens, UniProt P10275).
T1 sequence (P10275 whole entry): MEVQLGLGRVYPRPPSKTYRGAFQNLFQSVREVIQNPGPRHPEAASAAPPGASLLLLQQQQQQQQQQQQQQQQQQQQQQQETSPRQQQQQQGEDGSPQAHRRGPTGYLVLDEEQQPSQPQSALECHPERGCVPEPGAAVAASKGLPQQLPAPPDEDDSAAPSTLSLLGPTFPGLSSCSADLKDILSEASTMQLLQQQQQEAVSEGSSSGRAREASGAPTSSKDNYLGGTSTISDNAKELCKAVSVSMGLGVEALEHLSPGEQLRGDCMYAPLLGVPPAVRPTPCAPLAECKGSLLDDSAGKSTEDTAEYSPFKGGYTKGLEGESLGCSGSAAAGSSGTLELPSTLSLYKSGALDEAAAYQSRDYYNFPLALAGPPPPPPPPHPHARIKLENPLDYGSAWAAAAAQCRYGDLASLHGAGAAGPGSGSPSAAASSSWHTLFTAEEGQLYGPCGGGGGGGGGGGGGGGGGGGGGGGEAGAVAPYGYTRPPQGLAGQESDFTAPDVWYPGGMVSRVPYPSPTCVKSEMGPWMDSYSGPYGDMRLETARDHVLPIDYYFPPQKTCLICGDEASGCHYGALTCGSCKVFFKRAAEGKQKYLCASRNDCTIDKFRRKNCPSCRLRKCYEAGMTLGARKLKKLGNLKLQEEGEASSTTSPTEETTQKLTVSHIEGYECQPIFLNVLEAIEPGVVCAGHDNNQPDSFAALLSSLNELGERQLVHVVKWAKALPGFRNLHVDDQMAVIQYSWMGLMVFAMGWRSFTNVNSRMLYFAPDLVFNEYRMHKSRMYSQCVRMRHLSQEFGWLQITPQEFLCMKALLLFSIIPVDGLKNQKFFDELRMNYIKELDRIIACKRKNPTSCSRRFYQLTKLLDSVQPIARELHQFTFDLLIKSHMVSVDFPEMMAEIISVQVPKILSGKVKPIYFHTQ
Description: Inhibition of wild type Androgen receptor (unknown origin) expressed in Freestyle293F cells

The target in data set [2] is T1, Androgen receptor. This is another data set of the same source.
Description: Antagonist activity at wild type Androgen receptor (unknown origin) expressed in human Cos-7 cells co-expressing pGL3-MMTV-luc vector assessed as luciferase activity by reporter gene assay
In data set [3] the target is T2, Androgen receptor (Homo sapiens, UniProt P10275, T878A).
Description: Agonist activity at Androgen receptor T877A mutant in human LNCaP-hr cells assessed as prostate specific antigen secretion measured after 3 days by enzyme-immunoassay
The target of data set [4] is T1, Androgen receptor. The source holds these as a separate data set.
Description: Agonist activity at wild type Androgen receptor in human LNCaP-hr cells assessed as prostate specific antigen secretion measured after 3 days by enzyme-immunoassay
Data set [5] addresses T2, Androgen receptor. This is another data set of the same source.
Description: Inhibition of Androgen receptor T877A mutant (unknown origin) expressed in Freestyle293F cells
Data set [6] has as its target T2, Androgen receptor. The source holds these as a separate data set.
Description: Antagonist activity at Androgen receptor T877A mutant (unknown origin) expressed in human Cos-7 cells co-expressing pGL3-MMTV-luc vector assessed as luciferase activity by reporter gene assay
A short description of data set [7]: Half life in mouse plasma. The data set is classed as ADME, cell-free.
Data set [8] is described as follows: Antitumor activity against human LNCaP-hr cells in BALB/c mouse xenograft model assessed as plasma prostate specific antigen level at 100 mg/kg, po qd for 28 days by ELISA (reference value: 23.8 +/- 6.1 ng/ml). It is filed as functional. (In general: A xenograft is tissue or cells of one species grown in another, often human tumour cells in immunodeficient mice.)

Data set [9] is described as follows: Antitumor activity against human LNCaP-hr cells in BALB/c mouse xenograft model assessed as inhibition of tumor growth at 100 mg/kg, po qd for 28 days (reference value: 100%). It is filed as functional.
Data set [10] in a line: Antitumor activity against human LNCaP-hr cells in BALB/c mouse xenograft model assessed as inhibition of tumor growth at 30 mg/kg, po bid for 28 days (reference value: 100%). It is filed as functional.
The nature of data set [11]: Antitumor activity against human LNCaP-hr cells in BALB/c mouse xenograft model assessed as inhibition of tumor growth at 10 mg/kg, po bid for 28 days (reference value: 100%). The data set is classed as functional.
Data set [12] is described as follows: Antitumor activity against human LNCaP-hr cells in BALB/c mouse xenograft model assessed as plasma prostate specific antigen level at 30 mg/kg, po bid for 28 days by ELISA (reference value: 23.8 +/- 6.1 ng/ml). It is filed as functional.
Data set [13] is described as follows: AUC in mouse at 30 mg/kg, po. The data set is classed as ADME, organism-based. Also noted: dose 30 mg/kg, route oral. To be noted: plasma.
A short description of data set [14]: Mean residence time in mouse at 30 mg/kg, po. To be noted: in vivo. The data set is classed as ADME, organism-based. Also noted: dose 30 mg/kg, route oral.
Data set [15] is described as follows: Antitumor activity against human LNCaP-hr cells in BALB/c mouse xenograft model assessed as plasma prostate specific antigen level at 10 mg/kg, po bid for 28 days by ELISA (reference value: 23.8 +/- 6.1 ng/ml). It is filed as functional.

T2 sequence (P10275 whole entry T878A): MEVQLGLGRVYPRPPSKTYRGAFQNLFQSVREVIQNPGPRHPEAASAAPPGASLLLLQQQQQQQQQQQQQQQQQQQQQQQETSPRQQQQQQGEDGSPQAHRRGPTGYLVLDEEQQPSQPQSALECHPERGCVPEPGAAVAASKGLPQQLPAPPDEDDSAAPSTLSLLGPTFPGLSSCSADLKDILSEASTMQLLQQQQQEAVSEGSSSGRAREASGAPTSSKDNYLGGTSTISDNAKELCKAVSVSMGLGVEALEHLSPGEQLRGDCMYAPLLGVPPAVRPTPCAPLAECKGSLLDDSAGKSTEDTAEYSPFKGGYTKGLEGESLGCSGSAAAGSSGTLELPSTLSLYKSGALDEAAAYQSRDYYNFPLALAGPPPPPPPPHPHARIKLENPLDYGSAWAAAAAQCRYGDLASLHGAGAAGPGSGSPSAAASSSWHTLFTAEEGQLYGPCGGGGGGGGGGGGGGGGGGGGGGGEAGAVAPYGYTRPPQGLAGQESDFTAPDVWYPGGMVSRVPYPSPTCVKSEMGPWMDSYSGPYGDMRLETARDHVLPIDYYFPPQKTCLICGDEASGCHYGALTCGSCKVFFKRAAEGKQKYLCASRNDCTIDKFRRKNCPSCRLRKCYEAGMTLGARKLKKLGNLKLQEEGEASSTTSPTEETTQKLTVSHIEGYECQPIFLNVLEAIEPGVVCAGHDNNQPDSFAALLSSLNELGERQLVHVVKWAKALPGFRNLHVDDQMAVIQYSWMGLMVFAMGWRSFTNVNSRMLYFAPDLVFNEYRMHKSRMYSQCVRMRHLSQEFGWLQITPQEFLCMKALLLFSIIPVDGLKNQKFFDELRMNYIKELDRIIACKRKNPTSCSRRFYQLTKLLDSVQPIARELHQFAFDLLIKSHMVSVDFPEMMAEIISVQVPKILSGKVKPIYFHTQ

The term IC50 denotes the concentration needed to halve the response being measured. By EC50 is commonly meant the concentration that produces a half-maximal response. A high value points to a need for much substance. On to `CNC(=O)c1ccc([C@]2(O)CCN(c3ccc(C#N)c(Cl)c3)[C@H]2C)cn1`, for which the IC50 in data set [1] was 44 nM; in data set [2], 25 nM; in [5] it was 100 nM; in data set [6], 99 nM. In addition, the half-maximal effective concentration (EC50) in data set [3] and in [4] was more than 10000 nM in each case.
Regarding `CNC(=O)c1ccc([C@@]2(O)CCN(c3ccc(C#N)c(Cl)c3)[C@@H]2C)cn1`, the IC50 in data set [1] was determined as 1600 nM; in data set [2], 6400 nM; in [5], 97 nM; in data set [6] it was 1600 nM. The EC50 in data set [3] and in data set [4] was more than 10000 nM throughout.
As to `N#Cc1ccc(N2CCC(O)C2)cc1Cl` (configuration not stated), the half-inhibitory concentration (IC50) was 120 nM in [1], 82 nM in data set [2], 30 nM in data set [5] and more than 10000 nM in [6]. Also, the 50% effective concentration (EC50) in data set [3] stood at 640 nM; in [4], 4700 nM.
`N#Cc1ccc(N2CCC(O)(c3ccccc3)C2)cc1Cl` (racemic): the IC50 in [1] came out at 370 nM; in data set [2], 380 nM; in data set [5], 130 nM; in [6], 250 nM. Further, the EC50 in [3] and in data set [4] was more than 10000 nM in each case.
Consider `CNC(=O)c1ccc([C@]2(O)CCN(c3ccc(C#N)c(Cl)c3)[C@H]2C)cc1`, for which the IC50 in data set [1] is 32 nM; in data set [2] it was 8.6 nM; in data set [5] it was 18 nM; in data set [6], 10 nM. In addition, the EC50 in [3] is 10000 nM; in data set [4] it was more than 10000 nM.
As for `CNC(=O)c1ccc([C@]2(O)CCN(c3ccc(C#N)c(Cl)c3)[C@H]2C)nc1`, the IC50 in [1] was found to be 68 nM; in [2], 120 nM; in [5], 16 nM; in [6] it was 100 nM. In addition, the values for the EC50 in data set [3] and in data set [4] were 5100 nM and more than 10000 nM, respectively.
Usually half-life stands for the time in which the quantity being followed falls by half. A higher half-life goes with slow loss. With `C[C@@](O)(CS(=O)(=O)c1ccc(F)cc1)C(=O)Nc1ccc(C#N)c(C(F)(F)F)c1` [(S)-BICALUTAMIDE], the half-life in data set [7] is 19 h.
Regarding `N#Cc1ccc(N2CCC(O)(Cc3ccccc3)C2)cc1Cl` (configuration not stated), the IC50 in data set [1] was determined as 420 nM; in data set [2] it was 1000 nM; in data set [5] it was 59 nM; in [6] it was 450 nM. The EC50 was 4800 nM in data set [3] and more than 10000 nM in data set [4].
Consider `C[C@](O)(CS(=O)(=O)c1ccc(F)cc1)C(=O)Nc1ccc(C#N)c(C(F)(F)F)c1` [(R)-BICALUTAMIDE], for which the half-life in data set [7] is 101 h.
`C[C@@H]1N(c2ccc(C#N)c(Cl)c2)CC[C@@]1(O)c1ccc(C(=O)N(C)C)nc1`: the IC50 in data set [1] turned out to be 1100 nM; in [2], 1700 nM; in [5], 3000 nM; in data set [6] it was 10000 nM. The EC50 in data set [3] and in data set [4] was more than 10000 nM in each case.
Consider `C[C@@H]1N(c2ccc(C#N)c(Cl)c2)CC[C@@]1(O)c1ccc(C(N)=O)cc1`, for which the IC50 in data set [1] was found to be 27 nM; in data set [2], 17 nM; in data set [5], 42 nM; in data set [6], 9 nM. Further, the EC50 was 10000 nM in data set [3] and more than 10000 nM in data set [4].
Regarding `CNC(=O)c1ccc([C@]2(O)CCN(c3ccc(C#N)c(OC)c3)[C@H]2C)cn1`, the IC50 in [1] came to 120 nM; in data set [2], 62 nM; in data set [5], 240 nM; in [6], 730 nM.
One may read the T/C as the result in the treated group divided by that in the control group, in per cent. As for `CC(O)(CS(=O)(=O)c1ccc(F)cc1)C(=O)Nc1ccc(C#N)c(C(F)(F)F)c1` (configuration not stated) [BICALUTAMIDE], the Activity in data set [8] came out at 45.6 ng/mL. Moreover, the T/C in data set [9] was determined as 191%.
The AUC is the area under the concentration-time curve, a measure of exposure. The low end stands for less exposure, the high end for more exposure. In general, MRT refers to a mean duration of stay, worked out from the concentration-time curve. On to `CNC(=O)c1ccc([C@]2(O)CCN(c3ccc(C#N)c(F)c3)[C@H]2C)cn1`, for which the IC50 in data set [1] is 830 nM; in [2], 290 nM; in data set [5] it was 1700 nM; in data set [6], 1700 nM. The T/C in data set [10] is 18%; in data set [11] it was 139%. For the same compound, the values for the Activity in [12] and in [15] were 4.3 ng/mL and 33 ng/mL, respectively. In [13], the AUC was determined as 232 µg·h/mL. Also, the mean residence time MRT in data set [14] was 4.07 h.
With `C[C@@H]1N(c2ccc(C#N)c(Cl)c2)CC[C@@]1(O)c1ccc(F)cc1`, the concentration for half-maximal inhibition (IC50) was 8 nM in data set [1], 17 nM in data set [2], 8.1 nM in data set [5] and more than 10000 nM in data set [6]. In addition, the figures for the EC50 in data set [3] and in data set [4] were 20 nM and more than 10000 nM, respectively.
Regarding `CNC(=O)c1ccc([C@]2(O)CCN(c3ccc(C#N)cc3)[C@H]2C)cn1`, the IC50 in data set [1] was found to be 7600 nM; in data set [2], 400 nM; in [5], 5300 nM; in data set [6] it was 1400 nM.
On the same counts, the results for `C[C@@H]1N(c2ccc(C#N)c(Cl)c2)CC[C@@]1(O)c1ccc(N2CCCC2=O)nc1` are 13 nM, 11 nM, 87 nM and 160 nM.
In the case of `N#Cc1ccc(N2CCC(O)(c3ccc(F)cc3)C2)cc1Cl` (racemic), the half-maximal inhibitory concentration (IC50) turned out to be 180 nM in data set [1], 68 nM in data set [2], 36 nM in [5] and 65 nM in [6]. For the same compound, the EC50 in data set [3] and in data set [4] was more than 10000 nM throughout.
